Key:
Format in all cases: cell-based
platelets [1] = assay: Filter back-pressure measurement of platelet aggregation, ADP reagent (final 5.6 μM), citrated blood; design: area under the curve of the pressure waveform: unit not given beside the values; settings: for area under the curve of the pressure waveform: 60 μl/minute, 5 minutes
Experimental: (§1) The apparatus in FIG. 1 was prepared for use in the following experiments.
(§2) As the container 1 (blood reservoir), a cylindrical acrylic container having a capacity of 450 μl (inner diameter, 6 mm; depth, 16 mm) was used.
(§3) As the filter, a circular nickel micromesh filter having 30 μm×30 μm square openings (pitch size, 45 μm) and a diameter of 1 mm, placed at the center of the filter section was used.
To the blood reservoir, 13 μl of […] ADP reagent (Dynabite GmbH, Germany) (final concentration, 5.6 μM) was added, and 450 μl of blood collected in a Terumo blood collection tube (Venoject, containing 3.13% sodium citrate) was added thereto. The resulting mixture was mixed in the blood reservoir, and the filter device was connected to the blood reservoir. One minute after the mixing of the blood with the ADP reagent, mineral oil was injected into the blood reservoir at a flow rate of 60 μl/minute to inject the blood into the filter device.
The back pressure exerted on the mineral oil was continuously monitored for 5 minutes at intervals of 1 second using the pressure sensor. In addition, the same measurement was carried out for blood to which AR-C66096 (platelet P2Y12 receptor inhibitor; Tocris Bioscience, UK) was added to a final concentration of 25, 50, 100, or 250 nM.

platelets [2] = assay: Multiplate impedance-based whole blood platelet aggregation, ADP (final 6.5 μM); settings: ADP 6.5 μM
Experimental: To provide controls, whole blood platelet aggregation was similarly measured for blood to which AR-C66096 was added to a final concentration of 25, 50, 100, or 250 nM, using Multiplate (impedance-based platelet aggregability analyzer, Dynabite GmbH). As the platelet-activating reagent, ADP (final concentration, 6.5 μM) was used. […] That is, in the absence of a physical load by blood flow or the like, platelet aggregates that have once adhered/aggregated to the electrode were maintained without breakdown, leading to the increase in the electric resistance.

platelets [3] = assay: Filter back-pressure measurement of platelet aggregation, arachidonic acid (6.25 mM or 10 mM), citrated blood
Experimental: as §1, §2, §3
To the blood reservoir, 30 or 50 μl (final concentration, 6.25 mM or 10 mM, respectively) of 100 mM arachidonic acid (manufactured by Dynabite GmbH) was added, and 450 μl of blood collected in a Terumo blood collection tube (Venoject, containing 3.13% sodium citrate) was added thereto. After mixing the resulting mixture, the filter device was connected to the blood reservoir. One minute after the mixing of the blood with the collagen reagent, mineral oil was injected into the blood reservoir at a flow rate of 60 μl/minute to inject the blood into the filter device.
The back pressure exerted on the mineral oil was continuously monitored for 5 minutes at intervals of 1 second using the pressure sensor. In addition, the same measurement was carried out for a mixture prepared by mixing 50 μl of an arachidonic acid reagent with blood to which aspirin was added to a final concentration of 100 μM.

platelets [4] = assay: Filter back-pressure measurement of platelet aggregation, collagen reagent (final 0.7 μg/ml), citrated blood; settings: aspirin 100 μM; collagen 0.7 μg/ml
Experimental: (§4) The apparatus in FIG. 1 was prepared for use in the following experiments. As the container 1 (blood reservoir), a cylindrical acrylic container having a capacity of 450 μl (inner diameter, 6 mm; depth, 16 mm) was used. As the filter, a circular nickel micromesh filter having 30 μm×30 μm square openings (pitch size, 45 μm) and a diameter of 1 mm, placed at the center of the filter section was used. To the blood reservoir, 13 μl of 25 μg/ml (final concentration, 0.7 μg/ml) collagen reagent (manufactured by Dynabite GmbH) was added, and 450 μl of blood collected in a Terumo blood collection tube (Venoject, containing 3.13% sodium citrate) was added thereto. After mixing the resulting mixture, the filter device was connected to the blood reservoir. One minute after the mixing of the blood with the collagen reagent, mineral oil was injected into the blood reservoir at a flow rate of 60 μl/minute to inject the blood into the filter device. The back pressure exerted on the mineral oil was continuously monitored for 5 minutes at intervals of 1 second using the pressure sensor. In addition, the same measurement was carried out for blood to which aspirin was added to a final concentration of 100 μM, or blood to which both 50 μM aspirin and 250 μM AR-C66096 were added.

platelets [5] = assay: Multiplate impedance-based whole blood platelet aggregation, collagen (final 3.2 μg/ml); settings: aspirin 100 μM; collagen 3.2 μg/ml
Experimental: To provide controls, whole blood platelet aggregation was similarly measured for blood to which aspirin was added to a final concentration of 100 μM, and blood to which both 50 μM aspirin and 250 μM AR-C66096 were added, using Multiplate (impedance-based platelet aggregability analyzer, Dynabite GmbH). As the platelet-activating reagent, collagen (final concentration, 3.2 μg/ml) was used.

platelets [6] = assay: Filter back-pressure measurement of platelet aggregation, PAR1-activating reagent (SFLLRN), citrated blood; settings: aspirin 100 μM
Experimental: as §4, with “reservoir, 20” for “reservoir, 13”, “of 1 mM PAR1-activating” for “of 25 μg/ml (final concentration, 0.7 μg/ml) collagen”, “reagent (peptide sequence, […]; manufactured” for “reagent (manufactured”, “reservoir. […]” for “reservoir. One minute after the mixing of the blood with the collagen reagent, mineral oil was injected into the blood reservoir at a flow rate of 60 μl/minute to inject the blood into the filter device.”, “sensor. The” for “sensor. In addition, the”, “100 μM.” for “100 μM, or blood to which both 50 μM aspirin and 250 μM AR-C66096 were added.”

platelets [7] = assay: Filter back-pressure measurement of platelet aggregation, PAR4-activating reagent (AYPGKF), citrated blood; settings: aspirin 100 μM
Experimental: as §4, with “reservoir, 20” for “reservoir, 13”, “of 20 mM PAR4-activating” for “of 25 μg/ml (final concentration, 0.7 μg/ml) collagen”, “reagent (peptide sequence, AYPGKF; manufactured” for “reagent (manufactured”, “sensor. The” for “sensor. In addition, the”, “100 μM.” for “100 μM, or blood to which both 50 μM aspirin and 250 μM AR-C66096 were added.”

platelets [8] = assay: Filter back-pressure measurement, collagen reagent (final 1.4 μg/ml), repeated 5 times; settings: collagen final 1.4 μg/ml; 5 times of measurement; no inhibitor
Experimental: as §1, §2, §3
To the blood reservoir, 13 μl of 50 μg/ml (final concentration, 1.4 μg/ml) collagen reagent (manufactured by Dynabite GmbH) was added, and 450 μl of blood collected in a Terumo blood collection tube (Venoject, containing 3.13% sodium citrate) was added thereto. After mixing the resulting mixture, the filter device was connected to the blood reservoir. One minute after the mixing of the blood with the collagen reagent, mineral oil was injected into the blood reservoir at a flow rate of 60 μl/minute to inject the blood into the filter device.
The back pressure exerted on the mineral oil was continuously monitored for 5 minutes at intervals of 1 second using the pressure sensor. The measurement was repeated 5 times.

[9] = AR-C66096 25-250 nM, ADP 5.6 μM

CCCSc1nc(N)c2ncn([C@@H]3O[C@H](COP(=O)(O)OP(=O)(O)C(F)(F)P(=O)(O)O)[C@@H](O)[C@H]3O)c2n1 [AR-C66096]
area under the curve of the pressure waveform (platelets [1]; AR-C66096 25 nM, ADP 5.6 μM): 11.75
stability and persistence of platelet aggregates (platelets [1]; AR-C66096 50 nM or 100 nM, arch-shaped pressure curves): suppressed
area under the curve of the pressure waveform (platelets [1]; AR-C66096 50 nM, ADP 5.6 μM): 8.7
area under the curve of the pressure waveform (platelets [1]; AR-C66096 100 nM, ADP 5.6 μM): 8.05
area under the curve of the pressure waveform (platelets [1]; AR-C66096 250 nM, ADP 5.6 μM): 7.95
beginning of the pressure increase (platelets [1]; [9]): delayed
pressure increase (platelets [1]; [9]): suppressed the pressure increase in a concentration-dependent manner
AUC (Multiplate impedance) (platelets [2]; AR-C66096 25 nM): 23
AUC (Multiplate impedance) (platelets [2]; AR-C66096 50 nM): 19
AUC (Multiplate impedance) (platelets [2]; AR-C66096 100 nM): 15
AUC (Multiplate impedance) (platelets [2]; AR-C66096 250 nM): 17
concentration dependence of AUC (Multiplate) (platelets [2]; AR-C66096 25-250 nM): no concentration dependence was found

CCCCC/C=C\C/C=C\C/C=C\C/C=C\CCCC(=O)O [arachidonic acid]
platelet activation / pressure (platelets [3]; arachidonic acid 6.25 mM or 10 mM): activated platelets to increase the pressure

CC(=O)Oc1ccccc1C(=O)O [aspirin]
beginning of the pressure increase (platelets [4]): delayed
pressure increase (platelets [4]): suppressed
AUC of the electric resistance (Multiplate) (platelets [5]): 28
effect on Multiplate aggregation (platelets [5]): an effect of aspirin could be found
pressure increase (platelets [3]; aspirin 100 μM, 50 μl arachidonic acid reagent (10 mM)): suppressed
aggregation waveform obtained by the PAR1-activating peptide (platelets [6]): not inhibited
aggregation waveform obtained by the PAR4-activating peptide (platelets [7]): not inhibited

collagen
area under the curve of the pressure waveform (mean±SD) (platelets [8]): 15.11±0.8

From US20150338330A1, “Method for Comprehensive Assessment of Platelet Aggregation” (FUJIMORI KOGYO CO., LTD.,, priority 2012, published 2015)
